Test results from patent US4916122A, “3'-Azido-2',3'-dideoxyuridine anti-retroviral composition” (University of Georgia Research Foundation, Inc., priority 1987, dated 1990).
Read-outs that look alike come from different tables or passages of the source.

Experiments:
in vivo = test: in vivo; set-up: species or system mouse; settings: mice, 250 mg/kg iv
Protocol: In rhesus monkeys, the pharmocokinetic parameters after an oral dose of […] of CS-87 are as follows:
^a Mice were administered the drug at a dose of 250 mg/kg iv.

HIV-1 and SIV = test: Effect of delayed treatment on replication of HIV-1 and SIV in human PBM cells (FIG. 7); type: cell-based, HIV-1; SIV
Description: A comparison of the differences in median effective an tiviral concentrations between human, non-human primate, and murine retroviruses is shown in Table 5. […] A further comparison of the activity of several nucleoside analogues, including CS-87, against HIV-1 and SIV in human PBM cells is shown in FIG. 6. The effect of delayed treatment with AZT, CS-87 or CS-91 on the replication of HIV-1 and SIV in human PBM cells is shown in FIGS. 7a, b, and c.

HIV-1 (strain LAV) = test: Inhibition of HIV replication in human PBM cells, reverse transcriptase assay (Table 3)
HIV (LAV-1) = test: Median effective antiviral concentration against HIV (Table 5); type: cell-based; settings: HIV (LAV-1) vs Friend (EY-10) or Cas-Br-M
L1210 cells = settings: in vitro; Lin et al.; Lin and Mancini; cited from earlier work
[1] = Human immunodeficiency virus 1, PBMC, in Homo sapiens, read-out: RT % Inhibition (corrected)

Which “activity compared to d2C in PBM cells” value (HIV-1) does the source give for [N-]=[N+]=N[C@H]1C[C@H](n2ccc(=O)[nH]c2=O)O[C@@H]1CO [CS-87, 3'-azido-2',3'-dideoxyuridine] here?
The value was “less active”.

And the “Ratio: % B/S” value (in vivo; 5 min)?
The value was 6.3%.

What about the Serum levels (in vivo; 5 min) of the same compound?
Its Serum levels is 125700 ng/mL.

And the Kp at 5 min (in vivo; mouse, in vivo, iv, 250 mg/kg, 5 min, read-out: Ratio: % B/S)?
The Kp at 5 min was 0.043.

What about the concentration at 5 min (in vivo; mouse, in vivo, iv, 250 mg/kg, 5 min, read-out: Serum levels) of the same compound?
Its concentration at 5 min is 71300 ng/mL.

What about the concentration at 31 min (in vivo; mouse, in vivo, iv, 250 mg/kg, 31 min, read-out: Brain levels) of the same compound?
Its concentration at 31 min is 11100 ng/mL.

What about the Kp at 31 min (in vivo; mouse, in vivo, iv, 250 mg/kg, 31 min, read-out: Ratio: % B/S) of the same compound?
Its Kp at 31 min is 0.122.

What about the concentration at 31 min (in vivo; mouse, in vivo, iv, 250 mg/kg, 31 min, read-out: Serum levels) of the same compound?
The concentration at 31 min was 91000 ng/mL.

And the concentration at 34 min (in vivo; mouse, in vivo, iv, 250 mg/kg, 34 min, read-out: Brain levels)?
Its concentration at 34 min is 5670 ng/mL.

And the Kp at 34 min (in vivo; mouse, in vivo, iv, 250 mg/kg, 34 min, read-out: Ratio: % B/S)?
Its Kp at 34 min is 0.102.

What about the concentration at 34 min (in vivo; mouse, in vivo, iv, 250 mg/kg, 34 min, read-out: Serum levels) of the same compound?
The concentration at 34 min was 55500 ng/mL.

And the concentration at 71 min (in vivo; mouse, in vivo, iv, 250 mg/kg, 71 min, read-out: Brain levels)?
The concentration at 71 min was 6400 ng/mL.

And the Kp at 71 min (in vivo; mouse, in vivo, iv, 250 mg/kg, 71 min, read-out: Ratio: % B/S)?
Its Kp at 71 min is 0.261.

What about the concentration at 71 min (in vivo; mouse, in vivo, iv, 250 mg/kg, 71 min, read-out: Serum levels) of the same compound?
Its concentration at 71 min is 24500 ng/mL.

What about the concentration at 1.2 h (in vivo; mouse, in vivo, iv, 250 mg/kg, 72 min, read-out: Brain levels) of the same compound?
Its concentration at 1.2 h is 7330 ng/mL.

What about the Kp at 1.2 h (in vivo; mouse, in vivo, iv, 250 mg/kg, 72 min, read-out: Ratio: % B/S) of the same compound?
The Kp at 1.2 h was 0.134.

And the concentration at 1.2 h (in vivo; mouse, in vivo, iv, 250 mg/kg, 72 min, read-out: Serum levels)?
The concentration at 1.2 h was 54800 ng/mL.

What about the “effect of delayed treatment on replication of HIV-1 and SIV” value (HIV-1 and SIV) of the same compound?
Its value is “time of administration is critical to the effectiveness of the treatment”.

What about the “RT: Mean DPM/ml on day 5 (3 day old cells)” value (shortened to “RT: Mean DPM/ml”) (HIV-1 (strain LAV); 0.1 μM) of the same compound?
Its value is 367,934 DPM/ml.

And the “RT: Mean DPM/ml” value (HIV-1 (strain LAV); 1 μM)?
Its value is 188,878 DPM/ml.

What about the “RT: Mean DPM/ml” value (HIV-1 (strain LAV); 10 μM) of the same compound?
The value was 12,904 DPM/ml.

What about the inhibition at 0.1 µM (HIV-1 (strain LAV); [1]) of the same compound?
Its inhibition at 0.1 µM is 42.3%.

What about the inhibition at 1 µM (HIV-1 (strain LAV); [1]) of the same compound?
The inhibition at 1 µM was 70.4%.

And the inhibition at 10 µM (HIV-1 (strain LAV); [1])?
Its inhibition at 10 µM is 98%.

What about the “effectiveness against HIV (LAV-1) compared with Friend or mouse ecotropic virus” value (HIV (LAV-1)) of the same compound?
Its value is “much more effective”.

What about the “activity against L1210 cells” value (L1210 cells) of the same compound?
Its value is “inactive”.
